Patent EP2265632B1, “CD4-RELATED POLYPEPTIDES AND METHODS OF USE” (priority 2008, dated 2009)

What was measured:
gp120BaL = assay: Epitope occlusion assay (ELISA): competition with anti-gp120 MAbs for immobilized gp120; assay type: binding, HIV-1; details: for effect on binding of MAb 654-30D to gp120: CD4bs-directed MAb 654-30D 0.2 nM; for effect on binding of MAb 654-30D to gp120 / effect on binding of MAb b12 to gp120 / effect on binding of MAb 2G12 to gp120 / effect on binding of MAb B4a1 to gp120: 2dCD4 0 to 1 µM or peptides 0 to 1 mM; for effect on binding of MAb b12 to gp120: CD4bs-directed MAb b12 0.2 nM; for effect on binding of MAb 2G12 to gp120: CD4bs-independent MAb 2G12 0.2 nM; for effect on binding of MAb B4a1 to gp120: CD4bs-independent MAb F425 B4a1 (V3 loop) 0.2 nM
[1] = Peptide analyses: oxidation state by discontinuous Tris/Tricine PAGE with densitometry; assay type: physicochemical; details: for peptide existing as monomers: densitometric analysis; for peptide existing as monomers / oxidation state of the peptide: no reducing agent; for oxidation state of the peptide: reconstituted in PBS (pH 7.4), Tris/Tricine PAGE
Experimental: Peptide analyses. Synthetic 7-mer peptides Hel-S (RRSLWDQ, SEQ ID NO:10), Hel-Cs (DLRQCWR, SEQ ID NO:27) and Hel-C (RRCLWDQ, SEQ ID NO:2) were analysed by discontinuous PAGE according to the method of Schagger and von Zagau with modifications. Briefly, 2.5 µg of each lyophilized peptide reconstituted in pure H2O was mixed with a reducing agent-free loading buffer (0.1 M Tris, 20% glycerol, 8% SDS and 0.02% Coomassie blue G-250), incubated at 80°C for 3 minutes and loaded onto a 17.5% Tris/Tricine gel. Samples were resolved at 20 mAper gel until stacked (1-2 hours) and at 35 mA for 16 hours through the resolving gel. The gel was fixed by incubation in a 5% glutaraldehyde solution for 1 hour and then stained with Coomassie Blue-R250. Peptide monomer/dimer ratios were calculated by densitometry using Quantity One® software (BioRad, Hercules, CA (USA)). To evaluate the redox states of cysteine-containing peptides further, reduced Glutathione (GSH) (Sigma, UK), β-mercaptoethanol and dithiothreitol (DTT) were included in the sample loading buffer at concentrations ranging from 0 to 400 mM, and the samples were resolved and analysed as described above.
Peptide Analyses. We analysed the oxidation states of the synthetic peptides Hel-S, Hel-Cs and Hel-C following reconstitution in PBS (pH 7.4) by high resolution Tris/Tricine PAGE (resolving buffer pH = 8.0). As expected, in aqueous solution at close to neutral pH, the wild-type CD4-mimetic peptide Hel-S consisted of a pure monomer of molecular weight equal to approximately 1 kDa (predicted Mw = 976 g/mol). […] The latter are evident as bands of approximately 2 kDa, which presumably result from intermolecular disulfide bond formation. […] We then treated Hel-C with the thiol-containing reducing compounds β-mercaptoethanol (β-ME) and 1,4-dithiothreitol (DTT) to determine relative effects on cysteine oxidation in this peptide.

recombinant gp120BaL [2] = assay: Electrophoretic mobility shift assay (EMSA) with [14C]-acetylated peptides, scintillation counting of excised gp120; assay type: binding, HIV-1; details: for peptide associated with excised gp120: 5 µM gp120BaL, 500 µM radiolabeled peptide, no reducing agent
Experimental: Peptide N-terminal [^14C]-Acetylation. Hel-S, Hel-Cs and Hel-C were radioactively labeled by N-terminal acetylation according to the method of Fraenkel-Conrat and Colloms with modifications. Briefly, peptides were reconstituted in an ice cold saturated solution of sodium acetate (> 3 M) to a concentration of 5 mM. [^14C]-Acetic anhydride (specific activity 116 mCi/mmol, Amersham Biosciences, UK) was then added to 100 µl of the reconstituted peptide solution in two 1 µl installments over 15 minutes, and the labeling reactions were incubated for 2 hours on ice. After addition of the final acetic anhydride installment, the reaction concentrations of both peptide and acetic anhydride were 5 mM, and the samples contained 1% toluene and 500 nCi/µl of [^14C]. An equal volume (100 µl) of ice cold PBS (pH 7.4) was then added to each reaction. For buffer exchange and removal of unincorporated radiolabel, the [^14C]-labeled peptides were purified chromatographically using Sephadex G-10 spin columns (Sigma, UK) equilibrated in PBS (pH 7.4). The concentration of the purified labeled peptides was determined by measuring A280, and the labeling efficiencies were analysed by discontinuous PAGE and fluorescence autoradiography, as well as by liquid scintillation counting using Packard Tri-Carb 2200 Liquid Scintillation Analyzer. Labeled peptides were stored in 50 µl aliquots at -80°C.
Electrophoretic Mobility Shift Assay (EMSA). Peptide-gp120 binding reactions were set up in 50 µl and contained 5 µM of pure recombinant gp120BaL and 500 µM of radio labeled Hel-S, Hel-Cs or Hel-C in PBS (pH 7.4). Reactions were incubated at 25°C for 3 hours and then stopped by the addition of an equal volume (50 µl) of either reducing agent-free loading buffer (0.1 M Tris, 20% glycerol, 8% SDS and 0.02% Coomassie blue G-250) or the same buffer containing 1, 10 or 100 mM of DTT. The samples were incubated at 80°C for 3 minutes before loading on a 20 × 20 cm 6 - 20% gradient Tris/Tricine polyacrylamide gel, and were resolved at a constant 40 V for 16 hours at room temperature. After electrophoresis, the gel was rinsed thoroughly with H2O and then stained lightly by incubation in a solution containing 10% methanol, 10% acetic acid and 0.02% Coomassie Blue R-250 for 10 minutes with gentle shaking. The gel was rinsed with H20, and bands corresponding to gp120 were excised using a gel punch and placed in 1.5 ml microcentrifuge tubes. The gp120-containing polyacrylamide slices were solubilized by incubation at 37°C for 16 hours in 400 µl of a solution containing 30% H2O2 and 0.03% ammonium hydroxide. The dissolved polyacrylamide samples were added to 2 ml of Aquasol-2 scintillation cocktail (Perkin Elmer, USA), and radioactive emissions expressed as counts per minute (cpm) measured by scintillation counting.
Hel-C Binds gp120 through disulfide linkage on gp120. We adopted two independent approaches to evaluate the potential of Hel-C to bind recombinant gp120. First, we used an electrophoretic mobility shift assay (EMSA) to detect gp120-bound peptides following resolution of peptide/protein mixtures on denaturing gradient polyacrylamide gels. This method also enabled us to determine whether the mechanism of binding could be related to the establishment of disulphide bonds between the peptides and target gp120, by measuring the proportion of bound peptide in response to increasing doses of DTT. For detection, we decided to incorporate as small a label as possible into the peptide, so that steric effects of the labeling procedure would be minimal (such as would be the case with larger fluorescent/antigenic tags), and that the peptide would be able to adopt a secondary structure as close as possible to the R59-Q64 α-helix chain in CD4. We therefore labeled Hel-C and the control peptides Hel-S and Hel-Cs with [^14C]-acetic anhydride, which incorporated a single [^14C]-acetyl group on the peptide N-termini. […]

recombinant gp120BaL [3] = assay: Surface plasmon resonance (Biacore 3000) on immobilized gp120; assay type: binding, HIV-1
Experimental: Surface Plasmon Resonance. All surface Plasmon resonance (SPR) experiments were performed on a BIA3000 optical biosensor (Biacore Inc., Uppsala, Sweden). Recombinant gp120BaL was immobilized on CM5 sensor chips by amine coupling according to the manufacturer's instructions. Briefly, a solution of 0.2 M EDC and 0.05 M NHS was used to activate carboxyl groups on the sensor surface at a flow rate of 5 µL/min for 10 minutes. Recombinant gp120BaL, dissolved in 100 mM sodium acetate buffer (pH 5.5) to a final concentration of 0.05 µM, was passed over the sensor chip surface at a flow rate of 5 µL/min until an immobilization level of 5000 RU was achieved. Excess carboxyl groups were capped by injection of 1 M ethanolamine (pH 8.0) at a flow rate of 5 µL/min for 5 minutes. Unbound ligand was removed by injecting 10 mM glycine (pH 2.5) at a flow rate of 5 µL/min for 2 minutes. In all experiments, the neighbouring flow cell was treated as mentioned above without the immobilization of gp120BaL, and this served as a reference surface. Prior to all experiments, the functionalities of the gp120 surfaces were tested by binding sCD4 at 500 nM in HEPES-buffered saline supplemented with 0.15 M NaCl (HBS-N, pH7.4). Analyte solutions were prepared in HBS-N at least 30 minutes prior to injection. All binding experiments were performed in duplicate at 25°C. For peptide binding analyses, increasing concentrations of peptide (from 0 to 500 µM) were passed over the surface at a flow rate of 5 µL/min, with a 5 minute association phase and a 6 minute dissociation phase. Surfaces were regenerated with a 20 mM sodium hydroxide (NaOH) solution between consecutive peptide analyses. The integrity of the surfaces was tested after each regeneration for sCD4 binding. Buffer injections and control surface binding were subtracted for all reported data.
Recombinant gp120BaL was immobilized on CM5 sensorchips and exposed to increasing concentrations of Hel-S, Hel-Cs or Hel-C.
The reasons for the slight difference are likely to be related to the different target gp120s used in these studies. […] Our data thus fit to a direct binding model consistent with 1:1 stoichiometry, and closely match previously published results.

Row | Substance | effect on binding of MAb 654-30D to gp120 (gp120BaL) | effect on binding of MAb b12 to gp120 (gp120BaL) | effect on binding of MAb 2G12 to gp120 (gp120BaL) | effect on binding of MAb B4a1 to gp120 (gp120BaL) | peptide existing as monomers [1] | oxidation state of the peptide [1] | peptide associated with excised gp120 (recombinant gp120BaL [2]) | other results
1 | DLRQCWR [Hel-Cs] | did not compete | did not compete | did not compete | did not compete | less than 10% | mixture of monomers and dimers | small amount | effect on binding of MAb b12 to gp120 (gp120BaL; listed as scrambled): does not
2 | RINNIPWSEAMM [12p1, reference compound] | – | – | – | – | – | – | – | calculated Rmax (recombinant gp120BaL [3]; 5000 RU gp120BaL surface): approximately 67 RU; amount bound (recombinant gp120BaL [3]; just over 100 µM peptide, 5000 RU gp120 BaL surface): approximately 45 RU
3 | RRCLWDQ [Hel-C, linear CD4-mimetic 7-mer peptide, R58 to Q64 of mature CD4 with S60C mutation] | dose-dependent inhibitory effect | dose-dependent inhibitory effect | did not compete | did not compete | less than 10% | mixture of monomers and dimers | significant quantity | effect on binding of MAb b12 to gp120 (gp120BaL; listed as S85C): appear to block; relief of Hel-C-mediated inhibition of b12-gp120 binding (gp120BaL; peptide pre-treated with 20 mM DTT): complete; relief of Hel-C-mediated inhibition of b12-gp120 binding (gp120BaL; peptide pre-treated with 20 mM β-mercaptoethanol): only partially rescued b12 binding; effect of reducing compounds on the amount of 2G12 bound in the presence or absence of peptide (gp120BaL; peptide pre-treated with 20 mM β-mercaptoethanol or DTT): no effect; proportion of Hel-C monomer ([1]; DTT at 10 mM): 50%; effect of DTT on cysteine oxidation ([1]; DTT at 200 mM): completely abolished the ability of the peptide to oxidize; effect of β-ME on cysteine oxidation ([1]; β-ME at 200 mM): unable to monomerize the peptide completely; mode of binding to gp120 (SPR binding kinetics) (recombinant gp120BaL [3]; both monomeric and trimeric gp120 proteins): binds covalently; binding to recombinant gp120 (recombinant gp120BaL [3]; conclusion from EMSA and SPR collectively): able to bind recombinant gp120; amount of bound peptide relative to the amount bound in the absence of any reducing compound (recombinant gp120BaL [2]; 100 mM DTT): 10%; mode of binding to gp120 (EMSA) (recombinant gp120BaL [2]; C14-radioactively labeled peptide, denaturing gels, absence and presence of reducing agents): binds covalently; amount of Hel-C bound to gp120 (recombinant gp120BaL [2]; increasing amounts of DTT added): decreased
4 | RRSLWDQ [Hel-S] | did not compete | did not compete | did not compete | did not compete | – | pure monomer | no detectable | effect on binding of MAb b12 to gp120 (gp120BaL; listed as native): does not
